# “And” between values parts separate entries of the source, which are not always exact repeats. Equal entries are not always repeated.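 Compound exposure: 48 hours, 5 concentrations, 96-well plates. GI50 = concentration required for 50% inhibition of growth. Definition used: TGI = concentration required for complete inhibition of growth.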 Where a SMILES comes first, the peptide text is derived from it. Bridges are numbered along the chain shown (N, C = ends). [ ]: non-standard residue; d: D form. The star is where a group is joined. ξ: configuration not given here. X26 = O=C(/C=C/C=C/C=C/C=C/C=C/C(=O)*)NC1=C(O)CCC1=O; NMeA = CN[C@@H](C)C(=O)O; ξF = NC(Cc1ccccc1)C(=O)O; ξA = CC(N)C(=O)O
# Experiments:
# Test in all cases: NCI anticancer screen, dose series, 48 h
# [1] = system: ACHN renal
# [2] = system: KM12 colon
# [3] = system: HOP-62 NSCLC
# [4] = system: TK-10 renal
# [5] = system: EKVX NSCLC
# [6] = system: UACC-62 melanoma
# [7] = system: OVCAR-4 ovarian
# [8] = system: LOX IMVI melanoma
# [9] = system: SF-268 CNS
# [10] = system: SF-295 CNS
SMILES,TGI [1] [µM],TGI [2] [µM],TGI [3] [µM],TGI [4] [µM],TGI [5] [µM],TGI [6] [µM],TGI [7] [µM],TGI [8] [µM],TGI [9] [µM],TGI [10],GI50 [1] [µM],GI50 [4] [µM],GI50 [6],GI50 [7] [µM],GI50 [9] [µM],GI50 [2] [µM],GI50 [3] [µM],GI50 [5] [µM],GI50 [8],GI50 [10]
CCOC(=O)c1nc2ccc(C(F)(F)F)cc2nc1Oc1ccc(C#N)cc1,> 100,> 100,28.9,84.3,30.2,36.5,83.8,> 100,33.6,31.5 µM,,,,,,,,,,
CC1NC(=O)[C@H](C)N(C)C(=O)[C@@H]2CCCN2C(=O)[C@@H](NC(=O)C(Cc2ccccc2)NC(=O)/C=C/C=C/C=C/C=C/C=C/C(=O)NC2=C(O)CCC2=O)COC(=O)[C@@H]2CCCN2C1=O (stereo partly drawn) (X26-[ξF]SP[NMeA][ξA]P; ester 2-C),> 100,> 100,> 100,92.1,> 100,> 100,> 100,> 100,> 100,> 100 µM,,,,,,,,,,
COC(=O)c1cc2c(cc1CC1Cc3cc4c(cc3C1)CCC4)CCC2,> 100,> 100,> 100,> 100,> 100,,> 100,55,> 100,> 100 µM,,,,,,,,,,
C[C@]12CC[C@@H]3c4ccc(O)cc4CC[C@H]3[C@@H]1C/C(=C\c1ccncc1)[C@@H]2O,28.3,62.2,44.5,> 100,> 100,25.6,> 100,,55.5,70.2 µM,,,,,,,,,,
N=C(N)c1ccc(-c2ccc(-c3cccs3)s2)cc1,3.14,,,2.91,,3.18,4.24,,4.41,,1.7,1.4,1.68 µM,1.71,1.87,,,,,
Cc1ccc(OCCn2cc(Nc3ccccc3)c(=O)n(CCOc3ccc(C)cc3)c2=O)cc1,> 100,> 100,,> 100,> 100,> 100,> 100,> 100,> 100,> 100 µM,,,,,,,,,,
Oc1[nH]c2ccc(Br)cc2c1N=NC(=S)Nc1ccc(F)cc1,18,30.5,60.5,23.8,,13.8,25.7,27.1,35.7,21.8 µM,,,,,,,,,,
COc1cc2cc(Oc3ccc(NC(=O)c4cc(C(F)(F)F)cc(C(F)(F)F)c4)cc3)c(C)nc2cc1OC,> 50,> 50,> 50,> 50,> 50,,> 50,> 50,> 50,> 50 µM,2.27,3.82,,4.53,> 50,2.79,> 50,2.04,47 µM,1.64 µM
CC12CCC3C(CCC4CC(OC(=O)Cc5ccc(N(CCCl)CCCl)cc5)CCC43C)C1CCC(=O)N2 (stereo not drawn),23.2,32.1,,35.5,30.5,,29.3,,31.1,30.3 µM,,,,,,,,,,
COc1c(O)c2c3c(c(C)cc(O)c3c1O)C(=O)C(O)(C(C)(C)C(C)=O)C2=O (stereo not drawn),> 100,> 100,> 100,> 100,,> 100,> 100,> 100,> 100,71.2 µM and > 100 µM,,,39.9 µM and > 100 µM,,,,,,33 µM and 67.6 µM,25.2 µM and > 100 µM

# — PubChem BioAssay (NCI)
